In patent US5608143A, “External regulation of gene expression” (E. I. Du Pont de Nemours and Company, priority 1994, dated 1997):

Key:
2-1 gene (In 2-1 mRNA) = assay: RNA slot blot / Northern analysis of 2-1 mRNA in roots of chemically treated corn; assay type: in vivo, corn (Missouri 17); set-up: In2-1 induction level: key to the marks not given beside the values
Experimental: Missouri 17 corn seeds were surface sterilized by soaking them in a solution of 10% commercial bleach and 0.1% sodium dodecylsulfate (SDS) for 30 minutes. Seeds were then rinsed thoroughly in a buchner funnel with sterile distilled water and prepared for germination by placing them onto 5-6 layers of moist sterile paper towels in a 8"×10" glass baking tray. The tray was covered with aluminum foil and placed in the dark in a 30° C. incubator for 48-72 hours to allow the seeds to germinate. After germination, seedlings were grown hydroponically in an apparatus consisting of a sheet of 8 mesh stainless steel wire gauze suspended over the top of a 2 liter glass beaker filled with sterile half strength Hoagland's solution (referred to 0.5× Hoagland's) so that the roots extended through the mesh and into the media. The hydroponic apparatus was aerated by introducing humidified air into the bottom of the beaker with a gas diffusing stone commonly used in tropical fish aquariums. The apparatus was covered with a loose-fitting sheet of aluminum foil and placed in a reach-in growth chamber illuminated by both fluorescent and incandescent lamps at an intensity of 4400 lux. Seedlings were grown at 28° C., 75% relative humidity using a 16 hour day/8 hour night cycle. After two days, the foil was removed and plants were grown for an additional 5-6 days. Any 0.5× Hoagland's lost to evaporation was replenished every 2-3 days. […] Plants were then allowed to grow for six additional hours prior to harvest.
A nitrocellulose filter (Schlicher and Schull BA-85) was wetted by soaking it twice for 10 minutes in water, followed by a 10 minute soak in 1M ammonium acetate. The filter was then placed into a Slot Blot apparatus (Schleicher and Schuell, Inc., Keene, N.H. 03431, CAT #SRC072/0). […] Forty pl of denaturation buffer (30% formaldehyde, 100 mM sodium phosphate pH 6.8) were added to each sample and all samples were then incubated at 65° C. for 20-30 minutes and quick-cooled in an ice slurry for 5 minutes. Thirty μl of 4M ammonium acetate were added to each sample and the 150 μl samples were added to slots in the blotting cell with the aid of a 10-15 mm Hg vacuum. The filter was removed from the blotting cell, air dried and baked for 2 hours at 70° C. in vacuo.
The filter was cut into six pieces such that each piece had one slot cox.raining RNA from each of the three treatments described above. One of the filter pieces was incubated with 10 ml of prehybridization buffer (50% deienized formamide, 5× SSC, 5× Denhardt's, 100 μg/ml denatured calf thymus DNA, 20 μg/ml homopoly(A), 40 mM sodium phosphate pH 6.8 and 0.5% BSA) in a heat-sealable bag for 6 hours at 42° C. with occasional mixing. The filter piece was then hybridized with nick-translated pIn 2-1. This was performed by discarding the prehybridization solution from the bag and replacing it with 2.5 ml of hybridization buffer (50% deionized formamide, 5× SSC, 100 μg/ml denatured calf thymus DNA, 20 μg/ml homopoly(A) and 40 mM sodium phosphate, pH 6.8) containing 1.25×10^7 cpm of nick translated 2-1 plasmid described above. Nick-translated plasmid was denatured by boiling for 10 minutes followed by quick-cooling on ice. The filter was then hybridized overnight at 42° C. with occasional mixing.

[1] = system: tobacco T2 gene (T2 mRNA); assay: Northern analysis of T2 mRNA in roots of chemically treated tobacco; assay type: in vivo, N. tabacum (Petite Havana SRI); conditions: treated vs control plants
Description: The procedures described for the isolation of the petunia cDNA clone P6.1 in Example 4 were repeated using N. tabacum (Petite Havana SRI) as the starting plant material. Differential screening of the resulting tobacco cDNA library prepared using poly(A)^+ RNA from the roots of N-(aminocarbonyl)-2-chlorobenzenesulfonamide-treated tobacco plants identified a cDNA clone representing an N-(aminocarbonyl)-2-chlorobenzenesulfonamide-inducible mRNA species. This clone was designated T2.
A Northern blot of total RNA from the roots of untreated and N-(aminocarbonyl)-2-chlorobenzenesulfonamide-treated tobacco plants was probed with nick-translated T2.1 to determine the size of the corresponding T2 mRNA. The methods used for these procedures were described in Example 4.

[2] = system: 2-2 promoter/HRA recombinant gene; assay: RNAse protection analysis of HRA (ALS) mRNA in leaves of tobacco transformed with 2-2 promoter/HRA gene; assay type: in vivo; conditions: excised leaves, 200 mg/l in 0.5× Hoagland's, 16-24 hours
Experimental: The expression of stable cytoplasmic mRNA transcribed from the wild type and transforming ALS genes in transformed plants were measured by RNAse protection analysis. In this manner, expression of the pDuPS22 construction was distinguished from the wild type ALS genes by virtue of the fact that the pDUPS22 transcript has a 2-2 untranslated leader that is divergent from the untranslated leader of the native ALS genes. […]
RNAse protection assays were carried out using the protocol of Zinn et al. (Zinn et al. Cell (1983) 34, 865-879). […] The sizes of the labelled RNA fragments remaining after digestion with RNAse T1 and RNAse A were determined by electrophoresis using 6% denaturing polyacrylamide gels.

Which results are given for `NC(=O)NS(=O)(=O)c1ccccc1Cl`?
hybridization of pIn 2-1 to root RNA (RNA slot blot) (2-1 gene (In 2-1 mRNA); hydroponic 0.2 g/liter, six hours, corn roots): strongly hybridized; In2-1 induction level (2-1 gene (In 2-1 mRNA); hydroponic application, 100 ppm): +++++; hybridization of pIn 2-1 to root poly(A)+ RNA (Northern blot) (2-1 gene (In 2-1 mRNA); hydroponic treatment, corn roots): single intense hybridization signal; hybridization of T2.1 to root RNA (Northern blot) [1]: hybridized to an mRNA of 800 nt; induction of HRA mRNA (RNAse protection) [2]: induction of high levels of stable cytoplasmic HRA mRNA
